Experimental data published in US11122801B2, “Inhibitors of enzymes that confer pesticide resistance” (APRESLABS LTD., priority 2015, dated 2021).

Experiments:
[1] = tested on: P450 activity derived from Meligethes aeneus; assay: P450 activity by deethylation of ethoxycoumarin (Example 7); assay type: biochemical; conditions: equal concentrations, 30 ug/incubation
Protocol: P450 activity was measured by the deethylation of ethoxycoumarin.
(30 ug/incubation) as used in Example 5.

[2] = target: T1, resistance-associated esterase, E4 (Myzus persicae, UniProt P35501); assay: Inhibition of purified resistance-associated esterase E4, para-nitrophenyl acetate substrate; assay type: biochemical, M. persicae; conditions: 3 μL 1% synergist, 10 minutes incubation, 1 mM para-nitrophenyl acetate, 405 nm
T1 sequence (P35501 24-552): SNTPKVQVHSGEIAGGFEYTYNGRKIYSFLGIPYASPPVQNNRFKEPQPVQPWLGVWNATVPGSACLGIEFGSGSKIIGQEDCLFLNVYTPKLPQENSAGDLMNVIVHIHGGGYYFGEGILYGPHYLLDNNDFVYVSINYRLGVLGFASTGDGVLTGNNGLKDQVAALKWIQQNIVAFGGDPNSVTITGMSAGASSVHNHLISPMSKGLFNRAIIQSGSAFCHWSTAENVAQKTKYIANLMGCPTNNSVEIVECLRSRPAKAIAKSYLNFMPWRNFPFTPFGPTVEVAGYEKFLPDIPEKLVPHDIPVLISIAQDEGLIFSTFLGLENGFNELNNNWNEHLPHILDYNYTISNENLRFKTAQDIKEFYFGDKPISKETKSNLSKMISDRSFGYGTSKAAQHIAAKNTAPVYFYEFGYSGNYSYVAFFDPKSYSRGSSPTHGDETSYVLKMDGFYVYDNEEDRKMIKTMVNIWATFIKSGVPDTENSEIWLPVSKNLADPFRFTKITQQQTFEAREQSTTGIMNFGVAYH
Protocol: The assay used 1 mM para-nitrophenyl acetate as a substrate. 10 μL dilute E4 in 40 μL phosphate buffer (pH 7.0) was incubated with 3 μL 1% synergist for 10 minutes. 200 μL of 1 mM para-nitrophenyl acetate was added and the remaining activity was measured at 405 nm in a microplate spectrophotometer (Molecular Devices). Inhibition by the same concentration of PBO is shown for comparison.

[3] = tested on: P450 activity derived from insecticide-resistant B-type B. tabaci; assay: P450 activity by deethylation of ethoxycoumarin (Example 5); conditions: 1% (30 ug/incubation), 10 minutes incubation, 7-ethoxycoumarin
Protocol: P450 activity was measured by the deethylation of ethoxycoumarin. 50 μL of the enzyme in the presence/absence of synergists was incubated for 10 minutes after which […] of 0.5 mm 7-ethyoxycoumarin in a phosphate buffer (pH 7.8) was added/incubated for a further 5 minutes at 30° C. after which 10 μL of 9.6 mm NaDPH was added. Fluorometric units (Fu) were measured with excitation wavelengths of 370 nm and 460 nm.

[4] = tested on: Houseflies (Musca domestica); assay: Housefly topical mortality with α-cypermethrin and Syn A (Example 1); assay type: in vivo; conditions: α-cypermethrin alone, 1 μL of 0.0025 g L^−1, after 24 hrs
Protocol: Houseflies (Musca domestica) were treated with 1 μL of a diagnostic concentration (0.0025 g L^−1) of α-cypermethrin, such that about 20% of the flies had died after 24 hrs.
With the addition of 1% ‘Syn A’, (i.e. 10 ug/fly) the potassium salts of fatty acids (C14-C18) obtained as a by-product of olive oil production, the mortality increased to about 70% after 24 hours. The potassium salt synergist was applied first, and the insecticide was applied within 1 hr of the application of the synergist.
The mortality rate when Syn A was used on its own was about 10%.

CCCCOCCOCCOCc1cc2c(cc1CCC)OCO2 [PBO, piperonyl butoxide]
inhibition of P450 activity [1]: inhibition

CCCCC/C=C\C/C=C\CCCCCCCC(=O)O [linoleic acid]
inhibition of esterase E4 [2]: inhibition

CCCCCCCC/C=C\CCCCCCCC(=O)O [oleic acid]
inhibition of P450 activity [3]: inhibition
inhibition of esterase E4 [2]: inhibition

CC1(C)C(C=C(Cl)Cl)C1C(=O)OC(C#N)c1cccc(Oc2ccccc2)c1 (stereo not drawn) [α-cypermethrin]
flies died (mortality) [4]: about 20%
